Data: patent US11253589B2, “Modulation of the immune response” (priority 2007, dated 2022)

Experiments:
[1] = system: AHR-d mice; test: EAE induced with MOG35-55/CFA in AHR-d mice; type: in vivo; details: TCDD 1 μg/mouse
Procedure: C57BL/6 mice were given a single intraperitoneal (ip) dose of TCCD, and one day later EAE was induced by immunization with MOG35-55 in CFA. TCDD was also administered orally (1 μg/mouse) to determined whether an effective dose of this ligand can be delivered via oral administration and whether this dose is capable of reducing EAE development. EAE was induced by injecting the mice subcutaneously with […] of the MOG35-55 peptide ([…] (SEQ ID NO: 156)) in complete Freund adjuvant oil. In addition, the mice received 150 ng of pertussis toxin (Sigma-Aldrich) ip on days 0 and 2. Clinical signs of EAE were assessed according to the following score: 0, no signs of disease; 1, loss of tone in the tail; 2, hind limb paresis; 3, hind limb paralysis; 4, tetraplegia; 5, moribund.
To confirm that the effects on EAE were mediated by the activation of AHR, we used C57BL/6 mice carrying the d allele of the ahr gene (AHR-d mice). This allele codes for a mutant AHR with a 10 fold reduction in its affinity for TCDD and other ligands (Okey et al., Mol Pharmacol. 35, 823-30 (1989)) due to mutations in its ligand binding sites.

[2] = system: CD4+CD25- T cells; test: CD4+CD25- T cells activated with antibodies to CD3 in the presence of TCDD; type: cell-based, mouse; details: incubation with TCDD
Description: To rule out any direct cytotoxic or pro-apoptotic effect of TCDD on effector T cells, purified mouse CD4^+CD25^− T cells were activated in vitro with antibodies to CD3 in the presence of TCDD.

**Q.** What does the source list for `Clc1cc2c(cc1Cl)Oc1cc(Cl)c(Cl)cc1O2` [TCDD, 2,3,7,8 tetrachlorodibenzo-p-dioxin]?
**A.** Mean day of onset (Mean ± SD) [1]: 17.3 ± 3.0 days; Mean maximum score (mean ± SD) [1]: 2.2 ± 1.4; progression of EAE [1]: did not inhibit the progression of EAE; T cell apoptosis (annexin-FITC staining) ([2]; antibodies to CD3): did not increase T cell apoptosis; proliferative response ([2]; antibodies to CD3, 72 hours): did not decrease the proliferative response
